We go through 48 compounds from US8946266B2, “Substituted triazole and imidazole derivatives as gamma secretase modulators” (Janssen Pharmaceuticals, Inc., priority 2009, dated 2015).

The structures appear in SMILES notation. Where two headings read alike, the source gives them in different places.

One assay deals with Aβtotal. Description: γ-secretase-modulating activity, Method 2: Aβtotal Alphalisa in supernatant of SKNBE2 cells carrying APP 695-wild type (Table 3b). It is filed as cell-based. As to conditions: overnight, read-out: IC50 Aβtot. The protocol: (§1) Screening was carried out using SKNBE2 cells carrying the APP 695-wild type, grown in Dulbecco's Modified Eagle's Medium/Nutrient mixture F-12 (DMEM/NUT-mix F-12) (HAM) provided by Invitrogen (cat no. 10371-029) containing 5% Serum/Fe supplemented with 1% non-essential amino acids, 1-glutamine 2 mM, Hepes 15 mM, penicillin 50 U/ml (units/ml) en streptomycin 50 μg/ml. Cells were grown to near confluency.
(§2) The screening was performed using a modification of the assay as described in Citron et al (1997) Nature Medicine 3: 67. Briefly, cells were plated in a 384-well plate at 10^4 cells/well in Ultraculture (Lonza, BE12-725F) supplemented with 1% glutamine (Invitrogen, 25030-024), 1% non-essential amino acid (NEAA), penicillin 50 U/ml en streptomycin 50 μg/ml in the presence of test compound at different test concentrations. The cell/compound mixture was incubated overnight at 37° C., 5% CO2. The next day the media were assayed by two sandwich immuno-assays, for Aβ42 and Aβtotal.
(§3) Aβtotal and Aβ42 concentrations were quantified in the cell supernatant using the Aphalisa technology (Perkin Elmer). Alphalisa is a sandwich assay using biotinylated antibody attached to streptavidin coated donorbeads and antibody conjugated to acceptor beads. In the presence of antigen, the beads come into close proximity. The excitation of the donor beads provokes the release of singlet oxygen molecules that trigger a cascade of energy transfer in the acceptor beads, resulting in light emission. To quantify the amount of Aβ42 in the cell supernatant, monoclonal antibody specific to the C-terminus of Aβ42 (JRF/cAβ42/26) was coupled to the receptor beads and biotinylated antibody specific to the N-terminus of Aβ (JRF/AβN/25) was used to react with the donor beads. To quantify the amount of Aβ total in the cell supernatant, monoclonal antibody specific to the N-terminus of Aβ (JRF/AβN/25) was coupled to the receptor beads and biotinylated antibody specific to the mid region of Aβ (biotinylated 4G8) was used to react with the donor beads.
(§4) The sigmoidal dose response curves were analyzed using non-linear regression analysis with percentage of the control plotted against the log concentration of the compound. A 4-parameter equation was used to determine the IC50.
(§5) The IC50 values are shown in Table 3b (Aβtot means Aβtotal).

The next assay deals with Aβ42. The experiment in a line: γ-secretase-modulating activity, Method 2: Aβ42 Alphalisa in supernatant of SKNBE2 cells carrying APP 695-wild type (Table 3b). As to conditions: overnight. It is filed as cell-based. How it is done: as §1, §2, §3
To obtain the values reported in Table 3b, the data were calculated as percentage of the maximum amount of amyloid Beta 42 measured in the absence of the test compound.
as §4, §5
On the technique in general: Alpha assays give light when donor and acceptor beads are brought close together.

As to `COc1cc(-c2nc3n(n2)CCCC3c2ccccc2C(F)(F)F)ccc1-n1cnc(C)c1` (stereo not drawn) [Compound 336], the IC50 in the assay with Aβtotal was > 10000 nM; with Aβ42, 129 nM.

For the compound `COc1cc(-c2nc(Oc3cccc(C(F)(F)F)c3)n(C)n2)ccc1-n1cnc(C)c1` [Compound 246], the half-inhibitory concentration (IC50) with Aβtotal was determined as 9770 nM; with Aβ42 it was 269 nM.

For `COc1cc(-c2n[nH]c(-c3ccc(F)cc3)n2)ccc1-n1cnc(C)c1` [Compound 4], the IC50 in the assay on Aβtotal (Homo sapiens) was > 10000 nM; in the assay on Aβ42 (Homo sapiens) it was 646 nM.

For the compound `COc1cc(-c2nc(Nc3ccc(Cl)cc3F)n(C)n2)ccc1-n1cnc(C)c1` [Compound 126], the figures for the half-inhibitory concentration (IC50) in the assay with Aβtotal and in the assay with Aβ42 were > 10000 nM and 162 nM, respectively.

Turning to `COc1cc(-c2nc(Nc3cc(C(C)=O)ccc3F)n(C)n2)ccc1-n1cnc(C)c1` [Compound 223], the 50% inhibitory concentration (IC50) was > 10000 nM in the assay with Aβtotal (Homo sapiens) and 126 nM in the assay on Aβ42 (Homo sapiens).

Regarding `COc1cc(-c2nc(N3CCCC3)n(C(C)c3ccc(F)cc3)n2)ccc1-n1cnc(C)c1` (racemic) [Compound 76], the half-maximal inhibitory concentration (IC50) was found to be 12600 nM in the assay on Aβtotal and 851 nM in the assay with Aβ42.

On to `COc1cc(-c2nc(/C=C/c3ccc(F)cc3)nn2C)ccc1-n1cnc(C)c1` [Compound 59], for which the IC50 in the assay on Aβtotal was > 10000 nM; in the assay with Aβ42 it was 2950 nM.

With `COc1cc(-c2nc(N(C(C)=O)c3cc(F)c(F)cc3I)n(C)n2)ccc1-n1cnc(C)c1` [Compound 232], the concentration for half-maximal inhibition (IC50) was > 10000 nM with Aβtotal (Homo sapiens) and 1410 nM in the assay on Aβ42 (Homo sapiens).

As to `COc1cc(-c2nc(/C=C/c3ccc(F)cc3)n(C)n2)ccc1-n1cnc(C)c1` [Compound 45], the IC50 is > 10000 nM in the assay on Aβtotal and 85 nM in the assay with Aβ42.

For the compound `COc1cc(-c2nc(Nc3cc(C(F)(F)F)ccc3F)n(CCC#N)n2)ccc1-n1cnc(C)c1` [Compound 137], the IC50 in the assay with Aβtotal is > 10000 nM; in the assay with Aβ42, 41 nM.

Turning to `COc1cc(-c2nc(Nc3cc(F)ccc3Cl)n(C)n2)ccc1-n1cnc(C)c1` [Compound 113], the half-inhibitory concentration (IC50) was > 10000 nM in the assay with Aβtotal and 60 nM in the assay on Aβ42.

For the compound `COCCn1nc(-c2ccc(-n3cnc(C)c3)c(OC)c2)nc1Nc1cc(C(F)(F)F)ccc1F` [Compound 209], the values for the half-inhibitory concentration (IC50) with Aβtotal and in the assay with Aβ42 were 9550 nM and 52 nM, respectively.

`COc1cc(-c2nc(N[C@@H](C)c3ccc(F)cc3)nn2C)ccc1-n1cnc(C)c1` [Compound 62]: the IC50 is > 10000 nM with Aβtotal and 3240 nM with Aβ42.

Regarding `COc1cc(-c2nc(C)n(-c3ccccc3C(F)(F)F)n2)ccc1-n1cnc(C)c1` [Compound 19], the IC50 was > 10000 nM in the assay on Aβtotal (Homo sapiens) and 162 nM with Aβ42 (Homo sapiens).

For the compound `COc1cc(-c2nc3n(n2)CCOC3c2ccc(F)cc2C)ccc1-n1cnc(C)c1` (stereo not drawn) [Compound 280], the IC50 with Aβtotal is > 10000 nM; in the assay with Aβ42, 191 nM.

Take `COc1cc(-c2nc(Oc3ccccc3Cl)n(C)n2)ccc1-n1cnc(C)n1` [Compound 272]: the IC50 in the assay on Aβtotal was > 10000 nM; in the assay with Aβ42 it was 7590 nM.

Regarding `Cc1cn(-c2ccc(-c3nc(Nc4cccc(C(F)(F)F)c4)n(C)n3)cc2)cn1` [Compound 206], the IC50 in the assay on Aβtotal was found to be 8130 nM; in the assay on Aβ42, 166 nM.

Regarding `COc1cc(-c2nc(N(C)c3ccc(F)cc3C(F)(F)F)n(C)n2)ccc1-n1cnc(C)c1` [Compound 50], the IC50 in the assay with Aβtotal was > 10000 nM; in the assay on Aβ42 it was 110 nM.

As to `COc1cc(-c2nc(-c3ccc(F)cc3)nn2C)ccc1-n1cnc(C)c1` [Compound 52], the figures for the IC50 in the assay on Aβtotal and with Aβ42 were > 10000 nM and 5750 nM, respectively.

With `Cc1cn(-c2ccc(-c3nc(Nc4ccc(F)cc4C(F)(F)F)n(C)n3)cc2)cn1` [Compound 149], the IC50 with Aβtotal is > 10000 nM; with Aβ42, 1700 nM.

Turning to `COc1cc(-c2nc(Nc3c(F)cccc3C(F)(F)F)n(C)n2)ccc1-n1cnc(C)c1` [Compound 208], the IC50 in the assay with Aβtotal is > 10000 nM; with Aβ42, 178 nM.

Regarding `COc1ccc(Cl)cc1Nc1nc(-c2ccc(-n3cnc(C)c3)c(OC)c2)nn1C` [Compound 192], the IC50 in the assay on Aβtotal was found to be 9550 nM; with Aβ42 it was 41 nM.

In the case of `COc1cc(-c2nc(Cc3ccc(F)cc3C(F)(F)F)n(C)n2)ccc1-n1cnc(C)c1` [Compound 46], the results for the concentration for half-maximal inhibition (IC50) in the assay on Aβtotal and in the assay with Aβ42 were 8510 nM and 138 nM, respectively.

For the compound `COc1cc(-c2nc(Nc3ccccc3)n(C)n2)ccc1-n1cnc(C)c1` [Compound 335], the values for the IC50 with Aβtotal and in the assay on Aβ42 were > 10000 nM and 200 nM, respectively.

For the compound `COc1cc(-c2nc(Nc3ccccc3C(F)(F)F)n(C(C)C)n2)ccc1-n1cnc(C)c1` [Compound 176], the results for the 50% inhibitory concentration (IC50) with Aβtotal and in the assay with Aβ42 were > 10000 nM and 46 nM, respectively.

Regarding `COc1cc(-c2nc(Nc3cccc4c3OC(F)(F)O4)n(C)n2)ccc1-n1cnc(C)c1` [Compound 317], the half-maximal inhibitory concentration (IC50) was 7940 nM in the assay with Aβtotal and 34 nM in the assay on Aβ42.

Consider `COc1cc(-c2nc(Nc3cccc(F)c3)n(C)n2)ccc1-n1cnc(C)c1` [Compound 104], for which the concentration for half-maximal inhibition (IC50) in the assay on Aβtotal came to 8320 nM; with Aβ42 it was 115 nM.

With `COc1cc(-c2nc3n(n2)CCC(c2ccccc2C(F)(F)F)N3)ccc1-n1cnc(C)c1` (stereo not drawn) [Compound 274], the 50% inhibitory concentration (IC50) in the assay on Aβtotal (Homo sapiens) is 8710 nM; in the assay on Aβ42 (Homo sapiens) it was 155 nM.

For the compound `Cc1cn(-c2ccc(-c3nc(Nc4cc(C(F)(F)F)ccc4F)n(C)n3)cc2)cn1` [Compound 207], the 50% inhibitory concentration (IC50) with Aβtotal was > 10000 nM; in the assay on Aβ42, 123 nM.

As to `COc1cc(-c2nc(Cc3ccc(F)cc3)n(C)n2)ccc1-n1cnc(C)c1` [Compound 22], the half-maximal inhibitory concentration (IC50) in the assay on Aβtotal was > 10000 nM; in the assay with Aβ42, 479 nM.

As to `COc1cc(-c2nc(Nc3c(F)ccc(Br)c3F)n(C)n2)ccc1-n1cnc(C)c1` [Compound 127], the IC50 is > 10000 nM in the assay with Aβtotal and 66 nM in the assay with Aβ42.

On to `COc1cccc(-c2nc(-c3ccc(-n4cnc(C)c4)c(OC)c3)nn2C(C)C)c1` [Compound 37], for which the concentration for half-maximal inhibition (IC50) in the assay on Aβtotal is 11200 nM; in the assay with Aβ42 it was 85 nM.

With `COc1ccc(C(F)(F)F)c(Nc2nc(-c3ccc(-n4cnc(C)c4)c(OC)c3)nn2C)c1` [Compound 218], the 50% inhibitory concentration (IC50) is > 10000 nM in the assay on Aβtotal and 14 nM in the assay with Aβ42.

Consider `COc1c(-n2cnc(C)c2)ccc(-c2nc(Nc3ccccc3C)n(C)n2)c1F` [Compound 318], for which the IC50 in the assay with Aβtotal was > 10000 nM; with Aβ42, 240 nM.

Consider `COc1cc(-c2nc(Nc3ccc(F)cc3C(F)(F)F)n(C(C)C)n2)ccc1-n1cnc(C)c1` [Compound 49], for which the IC50 was 6030 nM with Aβtotal and 40 nM in the assay with Aβ42.

As for `COc1cc(-c2nc(NC3CCCC(C(F)(F)F)C3)n(C)n2)ccc1-n1cnc(C)c1` (stereo not drawn) [Compound 95], the values for the IC50 in the assay with Aβtotal and in the assay on Aβ42 were > 10000 nM and 912 nM, respectively.

Regarding `COc1cc(-c2nc(C(C)C)n(-c3ccc(F)cc3)n2)ccc1-n1cnc(C)c1` [Compound 31], the half-inhibitory concentration (IC50) with Aβtotal is > 10000 nM; with Aβ42, 447 nM.

Consider `COc1cc(-c2nc(Nc3ccccc3Br)n(C)n2)ccc1-n1cnc(C)c1` [Compound 102], for which the values for the IC50 in the assay on Aβtotal and in the assay on Aβ42 were > 10000 nM and 56 nM, respectively.

`COc1cc(-c2nc(-c3cccc(C(F)(F)F)c3)n(C)n2)ccc1-n1cnc(C)c1` [Compound 7]: the IC50 in the assay with Aβtotal is > 10000 nM; in the assay with Aβ42, 117 nM.

In the case of `COc1cc(-c2nc3n(n2)CCCC3(CO)c2ccc(F)cc2C)ccc1-n1cnc(C)c1` (stereo not drawn) [Compound 334], the half-inhibitory concentration (IC50) in the assay with Aβtotal (Homo sapiens) was > 10000 nM; with Aβ42 (Homo sapiens), 263 nM.

Consider `COc1nc(-c2nc(Nc3ccccc3F)n(C)n2)ccc1-n1cnc(C)c1` [Compound 107], for which the IC50 with Aβtotal is > 10000 nM; with Aβ42, 148 nM.

`COc1cc(-c2nc(Sc3cccc(C(F)(F)F)c3)n(C)n2)ccc1-n1cnc(C)c1` [Compound 249]: the values for the IC50 in the assay on Aβtotal (Homo sapiens) and in the assay on Aβ42 (Homo sapiens) were > 10000 nM and 646 nM, respectively.

As to `COc1cc(-c2nc(Nc3ccc(C(F)(F)F)cc3F)n(C)n2)ccc1-n1cnc(C)c1` [Compound 134], the values for the concentration for half-maximal inhibition (IC50) with Aβtotal and with Aβ42 were > 10000 nM and 110 nM, respectively.

As for `COc1cc(-c2nc3n(n2)CCCOC3c2ccc(F)cc2)ccc1-n1cnc(C)c1` (stereo not drawn) [Compound 284], the IC50 was > 10000 nM in the assay with Aβtotal and 229 nM with Aβ42.

On to `COc1cc(-c2nc(Nc3cc(F)ccc3C)n(C)n2)ccc1-n1cnc(C)c1` [Compound 173], for which the half-inhibitory concentration (IC50) in the assay with Aβtotal was > 10000 nM; in the assay on Aβ42, 60 nM.

In the case of `COc1cc(-c2nc3n(n2)CCCOC3c2ccccc2C(F)(F)F)ccc1-n1cnc(C)c1` (stereo not drawn) [Compound 285], the values for the IC50 in the assay with Aβtotal and with Aβ42 were > 10000 nM and 76 nM, respectively.

Regarding `COc1nc(-c2nc3n(n2)CCOC3c2cccc(F)c2C)ccc1-n1cnc(C)c1` (stereo not drawn) [Compound 347], the 50% inhibitory concentration (IC50) is > 10000 nM with Aβtotal and 126 nM in the assay on Aβ42.

With `COc1cc(-c2nc(-c3ccccc3C(F)(F)F)n(C(C)C)n2)ccc1-n1cnc(C)c1` [Compound 67], the IC50 amounted to 9550 nM with Aβtotal and 200 nM in the assay on Aβ42.

What is called IC50 is the concentration needed to halve the response being measured.
